Where two headings read alike, the source gives them in different places.
Columns and labels:
Type in all cases: biochemical
[1] = target: T1, recombinant HGFA serine protease domain (Homo sapiens, UniProt Q04756); assay: Fluorescent kinetic enzyme assay of HGFA activity (Boc-QLR-AMC)
T1 construct: His6 tag (N); seven amino acid spacer plus TEV cleavage site (N); made in house; host or cells: High 5 insect cells (baculovirus; Sf9 for virus production)
T1 sequence (Q04756 373-655): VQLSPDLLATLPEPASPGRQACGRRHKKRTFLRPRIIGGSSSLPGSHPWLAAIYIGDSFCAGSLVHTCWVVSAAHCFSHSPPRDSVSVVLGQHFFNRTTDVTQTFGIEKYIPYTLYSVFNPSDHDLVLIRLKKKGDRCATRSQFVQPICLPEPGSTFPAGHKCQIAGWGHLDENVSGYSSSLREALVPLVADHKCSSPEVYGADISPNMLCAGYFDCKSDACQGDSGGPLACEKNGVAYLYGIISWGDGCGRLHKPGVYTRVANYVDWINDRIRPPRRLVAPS
Excerpt: The compounds prepared in Examples 1 to 8 were subjected to a series of inhibitions studies. The compounds were first tested in an HGFA enzymatic assay using the fluorogenic substrate Boc-QLR-AMC with a recombinant form of the HGFA serine protease domain.
This PCR product was cloned into the SfoI-HindIII sites of a modified pFastBac HT baculovirus expression vector (Addgene, Cambridge, MA). This vector contains a six amino His tag followed by a seven amino spacer and a seven amino acid TEV cleavage site placed immediately downstream of the honey bee melittin signal peptide. Using a modified Bac to Bac Expression System (Life Technologies, Carlsbad, CA), recombinant HGFA bacmids were obtained by transforming DH10Bac Escherichia coli cells. To obtain HGFA containing baculovirus, purified bacmids were transfected into Sf9 insect cells. After 5 days in culture at 27° C., media was harvested from transfected Sf9 cells. This media was used to prepare baculovirus infected insect cells (BIICs). These BIIICs were used to infect High 5 insect cells. Four days post infection, media was harvested, and recombinant protein was prepared as follows. Media was chilled to 4° C. and spun at 4000×g for 20 minutes (all subsequent steps were performed at 4° C. unless noted). Clarified media was passed first through a Whatman GF/B 1 um (#1821-047, GE Healthcare Life Sciences, Piscataway, NJ) and then a 0.22 μm PES membrane (#99955, TPP Techno Plastic Products AG, Trasadingen, Switzerland) and then concentrated using a Pall Centramate tangential flow system and Centramate T-series Cassette (#OS010T12, Pall Corporation, Port Washington, NY). Concentrated media was then buffer exchanged in two steps, five volumes of 50 mM Na-phosphate, 500 mM NaCl, pH 6.2, followed by five volumes of 50 mM Na-phosphate, 500 mM NaCl, pH 7.5. […] After mixing this slurry for 12 hours, nickel agarose beads were allowed to settle by gravity and then loaded into a column. Beads were washed with buffer (25 mM Na-phosphate, 500 mM NaCl, 25 mM imidazole, pH 8) and the bound protein eluted using (25 mM Na-phosphate, 500 mM NaCl, 250 mM imidazole, pH 8). Using a Amicon Ultra-4 Centrifugal filters (#UFC801008, Merck Millipore, Ltd., Tullagreen, Ireland), peak protein fractions were concentrated and run over a Superdex-200 10/300 GL column (GE Healthcare Life Sciences, Piscataway, NJ) in 10 mM Tris, 200 mM NaCl, 0.2 mM EDTA, pH 8. HGFA containing fractions were pooled, concentrated, made 50% glycerol, and stored at minus 20° C. Protein was quantitated using a modified Lowry protein assay (#500-0006, Bio-Rad Laboratories, Hercules, CA) and specific activity determined using Boc-QLR-AMC substrate.
Fluorescent kinetic enzyme assays of HGFA, matriptase, and hepsin activity: Compounds (0-20 μM final concentration in reaction) were diluted in DMSO (2% DMSO final concentration in reaction) and then mixed with either recombinant HGFA serine protease domain, matriptase (#3946-SE-010, R&D Systems, Minneapolis, Minnesota), or activated hepsin* (#4776-SE-010, R&D Systems, Minneapolis, Minnesota) in black 384 well plates (Corning #3575. Coming, NY). The final assay concentration for HGFA, matriptase, and hepsin, were 6.25 nM, 0.2 nM, and 0.3 nM, respectively in TNC buffer (25 mM Tris, 150 mM NaCl, 5 mM CaCl2, 0.01% Triton X-100, pH 8). After thirty minutes of incubation at room temperature, Boc-QLR-AMC substrate was added (HGFA assay) or Boc-QAR-AMC substrate (matriptase, and hepsin assays). Fluorescence (excitation at 380 nm and emission at 460 nm) was kinetically measured at room temperature over a 1 hour time period using a Biotek Synergy 2 plate reader (Winnoski, VT). From a plot of the mean reaction velocity versus the inhibitor concentration, a non-linear four parameter curve fit was performed using GraphPad Prism (GraphPad Software, San Diego, CA) to determine inhibitor IC50s. The IC50 values were determined from the average of three or more separate experimental determinations. […]

[2] = target: T2, activated hepsin (Homo sapiens, UniProt P05981); assay: Fluorescent kinetic enzyme assay of hepsin activity (Boc-QAR-AMC)
T2 construct: purchased R&D Systems 4776-SE-010
Protocol: (§1) After thirty minutes of incubation at room temperature, Boc-QLR-AMC substrate was added (HGFA assay) or Boc-QAR-AMC substrate (matriptase, and hepsin assays). […] From a plot of the mean reaction velocity versus the inhibitor concentration, a non-linear four parameter curve fit was performed using GraphPad Prism (GraphPad Software, San Diego, CA) to determine inhibitor IC50s. The IC50 values were determined from the average of three or more separate experimental determinations. Apparent Ki values were calculated using the Cheng and Prusoff equation (Ki=IC50/(1+[S]/Km).
(§2) Inhibitors were pre-incubated with protease followed by the addition of the substrate. Inhibition of substrate proteolysis derived fluorescence was monitored kinetically over a period of one hour.

[3] = target: T3, matriptase (Homo sapiens, UniProt Q9Y5Y6); assay: Fluorescent kinetic enzyme assay of matriptase activity (Boc-QAR-AMC); conditions: Table 2; read-out: Matriptase (IC50 nM)
T3 construct: purchased R&D Systems 3946-SE-010
T3 sequence (Q9Y5Y6 615-855 limits assumed): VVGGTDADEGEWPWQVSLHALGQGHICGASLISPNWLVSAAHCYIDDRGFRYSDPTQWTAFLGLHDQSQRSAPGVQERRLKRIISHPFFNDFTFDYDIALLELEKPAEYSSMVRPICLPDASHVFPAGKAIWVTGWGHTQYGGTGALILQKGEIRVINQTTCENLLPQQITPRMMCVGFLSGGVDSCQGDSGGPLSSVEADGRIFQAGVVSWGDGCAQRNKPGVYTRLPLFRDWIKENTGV
Protocol: as §1, §2

[4] = Table 3, average of three experiments, read-out: HGFA IC50
[5] = Table 3, average of three experiments, read-out: Hepsin IC50
[6] = Example 12, read-out: IC50 for hepsin
[7] = Table 2, read-out: Hepsin (IC50 nM)

T2 sequence (P05981 163-417 limits assumed): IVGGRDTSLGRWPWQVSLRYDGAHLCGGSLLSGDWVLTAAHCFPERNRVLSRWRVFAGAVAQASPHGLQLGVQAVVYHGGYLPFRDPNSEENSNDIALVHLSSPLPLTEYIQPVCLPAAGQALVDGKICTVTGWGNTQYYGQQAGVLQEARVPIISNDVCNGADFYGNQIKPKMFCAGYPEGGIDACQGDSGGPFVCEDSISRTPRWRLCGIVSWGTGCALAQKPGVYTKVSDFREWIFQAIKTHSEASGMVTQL
T2 sequence (P05981 1-162 partner limits assumed): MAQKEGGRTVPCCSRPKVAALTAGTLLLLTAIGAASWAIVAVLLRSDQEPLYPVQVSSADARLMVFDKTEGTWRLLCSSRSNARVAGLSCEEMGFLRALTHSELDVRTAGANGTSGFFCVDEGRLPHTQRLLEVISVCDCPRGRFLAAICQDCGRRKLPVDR

Compound: CC(C)C[C@H](NC(=O)OC1(c2ccccc2)CCNCC1)C(=O)N[C@@H](CCCNC(=N)N)C(=O)c1nc2ccccc2s1 [Compound 8a, 4-phenylpiperidin-4-yl ((S)-1-(((S)-1-(benzo[d]thiazol-2-yl)-5-guanidino-1-oxopentan-2-yl)amino)-4-methyl-1-oxopentan-2-yl)carbamate]
- IC50 [1, 4]: 780 nM

Compound: CC(=O)N1CCC(OC(=O)N[C@@H](CC(C)C)C(=O)N[C@@H](CCCNC(=N)N)C(=O)c2nc3ccccc3s2)CC1 [Compound 8e, 1-acetylpiperidin-4-yl ((S)-1-(((S)-1-(benzo[d]thiazol-2-yl)-5-guanidino-1-oxopentan-2-yl)amino)-4-methyl-1-oxopentan-2-yl)carbamate]
- IC50 [2, 5]: 20 nM

Compound: CC(C)C[C@H](NC(=O)OC1CCN(S(=O)(=O)c2ccccc2)CC1)C(=O)N[C@@H](CCCNC(=N)N)C(=O)c1nc2ccccc2s1 [Compound 8f, 1-(phenylsulfonyl)piperidin-4-yl ((S)-1-(((S)-1-(benzo[d]thiazol-2-yl)-5-guanidino-1-oxopentan-2-yl)amino)-4-methyl-1-oxopentan-2-yl)carbamate]
- IC50 [2, 5]: 20 nM

Compound: CC(C)C[C@H](NC(=O)OC1CCN(S(=O)(=O)c2ccccc2F)CC1)C(=O)N[C@@H](CCCNC(=N)N)C(=O)c1nc2ccccc2s1 [Compound 8g, 1-((2-fluorophenyl)sulfonyl)piperidin-4-yl ((S)-1-(((S)-1-(benzo[d]thiazol-2-yl)-5-guanidino-1-oxopentan-2-yl)amino)-4-methyl-1-oxopentan-2-yl)carbamate]
- IC50 [2, 5]: 70 nM

Compound: CCS(=O)(=O)N1CCC(OC(=O)N[C@@H](CC(C)C)C(=O)N[C@@H](CCCNC(=N)N)C(=O)c2nc3ccccc3s2)CC1 [Compound 8h, 1-(ethylsulfonyl)piperidin-4-yl ((S)-1-(((S)-1-(benzo[d]thiazol-2-yl)-5-guanidino-1-oxopentan-2-yl)amino)-4-methyl-1-oxopentan-2-yl)carbamate]
- IC50 [2, 5]: 10 nM

Compound: CC(C)C[C@H](NC(=O)OC1CCN(S(=O)(=O)c2ccc(Cl)cc2)CC1)C(=O)N[C@@H](CCCNC(=N)N)C(=O)c1nc2ccccc2s1 [Compound 8i, 1-((4-chlorophenyl)sulfonyl)piperidin-4-yl ((S)-1-(((S)-1-(benzo[d]thiazol-2-yl)-5-guanidino-1-oxopentan-2-yl)amino)-4-methyl-1-oxopentan-2-yl)carbamate]
- IC50 [2, 5]: 60 nM

Compound: CC(C)C[C@H](NC(=O)OC1CCN(S(=O)(=O)c2cccc(F)c2)CC1)C(=O)N[C@@H](CCCNC(=N)N)C(=O)c1nc2ccccc2s1 [Compound 8j, 1-((3-fluorophenyl)sulfonyl)piperidin-4-yl ((S)-1-(((S)-1-(benzo[d]thiazol-2-yl)-5-guanidino-1-oxopentan-2-yl)amino)-4-methyl-1-oxopentan-2-yl)carbamate]
- IC50 [2, 5]: 70 nM

Compound: CC(C)C[C@H](NC(=O)OC1CCN(S(=O)(=O)c2ccc([N+](=O)[O-])cc2[N+](=O)[O-])CC1)C(=O)N[C@@H](CCCNC(=N)N)C(=O)c1nc2ccccc2s1 [Compound 8k, 1-((2,4-dinitrophenyl)sulfonyl)piperidin-4-yl ((S)-1-(((S)-1-(benzo[d]thiazol-2-yl)-5-guanidino-1-oxopentan-2-yl)amino)-4-methyl-1-oxopentan-2-yl)carbamate]
- IC50 [2, 5]: 110 nM

Compound: COc1ccc(Cl)cc1S(=O)(=O)N1CCC(OC(=O)N[C@@H](CC(C)C)C(=O)N[C@@H](CCCNC(=N)N)C(=O)c2nc3ccccc3s2)CC1 [Compound 8l, 1-((5-chloro-2-methoxyphenyl)sulfonyl)piperidin-4-yl ((S)-1-(((S)-1-(benzo[d]thiazol-2-yl)-5-guanidino-1-oxopentan-2-yl)amino)-4-methyl-1-oxopentan-2-yl)carbamate]
- IC50 [2, 5]: 60 nM

Compound: Cc1cc(C)c(S(=O)(=O)N2CCC(OC(=O)N[C@@H](CC(C)C)C(=O)N[C@@H](CCCNC(=N)N)C(=O)c3nc4ccccc4s3)CC2)c(C)c1 [Compound 8m, 1-(mesitylsulfonyl)piperidin-4-yl ((S)-1-(((S)-1-(benzo[d]thiazol-2-yl)-5-guanidino-1-oxopentan-2-yl)amino)-4-methyl-1-oxopentan-2-yl)carbamate]
- IC50 [2, 5]: 110 nM

Compound: CC(C)C[C@H](NC(=O)OC(c1ccccc1)C1CCNCC1)C(=O)N[C@@H](CCCNC(=N)N)C(=O)c1nc2ccccc2s1 (stereo partly drawn) [Compound 11a, phenyl(piperidin-4-yl)methyl ((S)-1-(((S)-1-(benzo[d]thiazol-2-yl)-5-guanidino-1-oxopentan-2-yl)amino)-4-methyl-1-oxopentan-2-yl)carbamate]
- IC50 [1, 4]: 14000 nM
- IC50 [2, 6]: 8 nM

Compound: CC(C)C[C@H](NC(=O)OC(Cc1ccccc1)C1CCNCC1)C(=O)N[C@@H](CCCNC(=N)N)C(=O)c1nc2ccccc2s1 (stereo partly drawn) [Compound 11b, 2-phenyl-1-(piperidin-4-yl)ethyl ((S)-1-(((S)-1-(benzo[d]thiazol-2-yl)-5-guanidino-1-oxopentan-2-yl)amino)-4-methyl-1-oxopentan-2-yl)carbamate]
- IC50 [1, 4]: 6000 nM
- IC50 [2, 6]: 2 nM

Compound: CC1CN(CC2CCN(Cc3ccccc3)CC2)C(=O)N(c2cccc(C(=N)N)c2)C1 (centres unmarked) [SRI 31215, reference compound]
- IC50 [1, 4]: 20000 nM

Compound: CC(C)C[C@@H]1NC(=O)[C@@H](N)CCCCNC(=O)C[C@@H](C(=O)N[C@@H](CCCNC(=N)N)C(=O)c2nc3ccccc3s2)NC1=O [VD1185, (2S,5S,13S)-13-amino-N—((S)-1-(benzo[d]thiazol-2-yl)-5-guanidino-1-oxopentan-2-yl)-2-isobutyl-3,7,14-trioxo-1,4,8-triazacyclotetradecane-5-carboxamide]
- IC50 [3]: 1.1 nM
- IC50 ([1]; Table 2, read-out: HGFA (IC50 nM)): > 20000 nM
- IC50 [2, 7]: 92 nM

Compound: CC(=O)N[C@H]1Cc2ccc(cc2)OC/C=C\CNC(=O)C[C@@H](C(=O)N[C@@H](CCCNC(=N)N)C(=O)c2nc3ccccc3s2)NC(=O)[C@H](CC(C)C)NC1=O [VD4054, (10S,13S,16S,Z)-16-acetamido-N—((S)-1-(benzo[d]thiazol-2-yl)-5-guanidino-1-oxopentan-2-yl)-13-isobutyl-8,12,15-trioxo-2-oxa-7,11,14-triaza-1(1,4)-benzenacycloheptadecaphan-4-ene-10-carboxamide]
- IC50 [3]: 72.6 nM
- IC50 [2, 7]: 0.643 nM

From patent US12590123B2, “Compounds and methods for treating cancer, viral infections, and allergic conditions” (Washington University, priority 2019, dated 2026)
